This data set is described as follows: Solubility of formulations for in vivo analysis (visual observation). Format: physicochemical. From the text:
Cannabidiol (CBD) and hydroxychloroquine (HCQ), were purchased by Pharmacology Discovery Services Taiwan, Ltd. The formulations are summarised in Table 3.

Each structure is given as a SMILES string.

Regarding `C[C@@H]1C[C@H]2[C@@H]3CCC4=CC(=O)C=C[C@]4(C)[C@@]3(F)[C@@H](O)C[C@]2(C)[C@@]1(O)C(=O)CO` [Dexamethasone], the Solubil. result is reported as “I”.
